Measured values: patent publication US9259022B2, “Sweetener” (Tate & Lyle Ingredients Americas LLC, priority 2013, dated 2016)

Assay: Round table sweetness evaluation by test panelists (sucrose equivalent value, SEV)
Format: in vivo
Conditions: equal sweet 10 SEV concentrations in neutral pH water, room temperature; references 4%-14% sucrose
Description: Round table evaluations were performed with test panelists. Equal sweet 10 SEV concentrations in neutral pH water were made for allulose, AceK and fructose, as well as a composition comprising allulose, AceK and fructose. The components of the test compositions are described in the below tables. The mixed compositions were calculated using the Beidler mixture equation for the sweeteners. The Beidler mixture equation for sweeteners is as follows: […]
The concentration of each component in the mixture in ppm is divided by SEV (c/R) and is plotted against concentration, c. The slope of the linear regression is […]. The y-intercept of the linear regression multiplied by Rmax is the half-maximal sweetness concentration, 1/K. Rmax and 1/K are the two parameters used in the Beidler equation
The equal-molar mixture was tested against reference samples for the panelists to determine SEV values. […] The test samples were served in 2 ounce soufflé cups (approximately 60 ml) coded with 3-digit codes at room temperature. A two minute wait period between samples was enforced. Water and unsalted crackers was available for the panelists to clear their palates before and during testing. EyeQuestion, software distributed by Logic8 BV of Elst, The Netherlands, was used for ballot development and recording of results. Results were collected in EyeQuestion for calculating approximate SEV level of each test sample.
The test products analyzed in this experiment are described below in Table 1.

Compared with `CC1=CC(=O)[N-]S(=O)(=O)O1.[K+]` [AceK, potassium salt of 6-methyl-1,2,3-oxathiazine-4(3H)-one 2,2-dioxide], `O=C(CO)C(O)C(O)C(O)CO` (stereo not drawn) [Allulose, allulose] is higher in “Mean sucrose equivalent value (SEV), Mean 1” value: 9.286 for the first, 10.14 for the second.

For `O=C(CO)[C@@H](O)[C@H](O)[C@H](O)CO` [Fructose, fructose], the “Mean sucrose equivalent value (SEV), Mean 1” value was 10.14.

First: CC1=CC(=O)[N-]S(=O)(=O)O1.[K+] [AceK, potassium salt of 6-methyl-1,2,3-oxathiazine-4(3H)-one 2,2-dioxide]
Second: O=C(CO)C(O)C(O)C(O)CO (stereo not drawn) [Allulose, allulose]
The “Median sucrose equivalent value (SEV), Median 1” value of the first is lower: 8 for the first, 10 for the second.

For `O=C(CO)[C@@H](O)[C@H](O)[C@H](O)CO` [Fructose, fructose], the “Median sucrose equivalent value (SEV), Median 1” value was 10.
